Structures are written as SMILES.

The test concerns the target Carbonic anhydrase 9 (Homo sapiens, UniProt Q16790). As to the kind of experiment: Inhibition of recombinant human carbonic anhydrase 9 incubated for 15 mins prior to testing by stopped flow CO2 hydration assay.
`COc1ccc2nc(S)n(-c3cccc(S(N)(=O)=O)c3)c(=O)c2c1`: the Ki (in general, a dissociation constant, usually derived from enzyme kinetics or from competition with a known ligand) came to 13 nM.

Take `COc1cc2c(=O)n(-c3cccc(S(N)(=O)=O)c3)c(S)nc2c(OC)c1OC`: the Ki was 20.1 nM. Turning to `Cc1ccc2nc(S)n(-c3cccc(S(N)(=O)=O)c3)c(=O)c2c1`, the Ki was 58.9 nM. Take `NS(=O)(=O)c1cccc(-n2c(S)nc3ccccc3c2=O)c1`: the Ki is 76.1 nM.

In the case of `COc1cc2nc(S)n(-c3cccc(S(N)(=O)=O)c3)c(=O)c2cc1OC`, the Ki was 19.8 nM. Consider `NS(=O)(=O)c1cccc(-n2c(S)nc3cc(Br)ccc3c2=O)c1`, for which the Ki came to 16.8 nM.

On to `NS(=O)(=O)c1cccc(-n2c(S)nc3cc(F)ccc3c2=O)c1`, for which the Ki was 2.7 nM. For the compound `NS(=O)(=O)c1cccc(-n2c(S)nc3ccc(F)cc3c2=O)c1`, the Ki came to 4.4 nM. As for `NS(=O)(=O)c1cccc(-n2c(S)nc3c(Br)cccc3c2=O)c1`, the Ki stood at 4 nM. Turning to `NS(=O)(=O)c1cccc(-n2c(S)nc3cc(Cl)ccc3c2=O)c1`, the Ki worked out at 15.4 nM. In the case of `COc1ccc2c(=O)n(-c3cccc(S(N)(=O)=O)c3)c(S)nc2c1`, the Ki came out at 25 nM. In the case of `Cc1cccc2c(=O)n(-c3cccc(S(N)(=O)=O)c3)c(S)nc12` it was 25.2 nM; in that of `NS(=O)(=O)c1cccc(-n2c(S)nc3ccc(Cl)cc3c2=O)c1`, 45.1 nM. Take `COc1cccc2c(=O)n(-c3cccc(S(N)(=O)=O)c3)c(S)nc12`: the Ki is 15.6 nM. With `NS(=O)(=O)c1cccc(-n2c(S)nc3ccc(I)cc3c2=O)c1`, the Ki came out at 1.5 nM.

With `Cc1cc2nc(S)n(-c3cccc(S(N)(=O)=O)c3)c(=O)c2cc1C`, the Ki came out at 34.5 nM. As for `NS(=O)(=O)c1cccc(-n2c(S)nc3c(Cl)cccc3c2=O)c1`, the Ki was determined as 9.5 nM.

(Values after ChEMBL document CHEMBL4024724, “Synthesis of new 3-(2-mercapto-4-oxo-4H-quinazolin-3-yl)-benzenesulfonamides with strong inhibition properties against the tumor associated carbonic anhydrases IX and XII” (Bioorg Med Chem, 2017).)
